{
  "source": "paper PMC9310824",
  "about": "(Drug Delivery, 2022)",
  "key": {"[1]": {"design": "method as in Zhang et al., 2007", "settings": "after p.o. administration, ref Zhang et al., 2007; cited from earlier work"}, "[2]": {"test_system": "rat osteoporosis model (OVX)", "test": "Anti-osteoporotic effect in OVX rats: histological analysis (H&E) of femur", "format": "in vivo", "settings": "compared with the OVX group", "description": "Bilateral ovariectomy (OVX) was performed to establish the rat osteoporosis model according to earlier work (Shakir et al., [2015]). Next, 24 rats were randomly divided into four groups (n = 6): sham operation group (Sham), OVX model group (OVX), free AS group (AS) and AS-AL-mPEG-PLGA group. Rats were anesthetized by intraperitoneal injection of pentobarbital sodium (1%, 8 mL/kg). Later, the rats were placed on a sterile table and fixed prone, while the surgical site on the back was shaved and sterilized with iodophor. Double incisions were taken under the costal back to separate the muscular layer and retroperitoneum into the abdominal cavity. The ovaries were found in the adipose tissue below the kidneys and were removed with bent tweezers and ligated before complete excision of the bilateral ovaries. After confirming that there was no active bleeding, the muscle layer and skin were interlocked, whilst the wound was disinfected. In the Sham group, only a small amount of adipose tissue around the ovaries was removed without damage to both ovaries. The operation was done gently while attention was paid to the sterility principle. After the operation, the rats were kept warm, while drug administration began 4 weeks afterwards at once a day for 12 weeks. Rats in the groups Sham and OVX were given 2 mL of normal saline via the oral route. […]"}, "[3]": {"test": "Drug release study in vitro by dialysis", "format": "physicochemical", "settings": "within 48 h, 37 °C", "description": "The release of AS in vitro was determined by dialysis (Algul et al., [2018]). AS free drug dispersion solution (5 mg/mL, 1 mL) and AS-AL-mPEG-PLGA containing the same volume and concentration of AS were added into dialysis bags (MV 3500 D, 25 mm × 5 m) accordingly. The dialysis bags were placed in a conical flask after their two sections have been fastened together. Subsequently, 100 mL releasing media (pH 1.2 HCl solution, double distilled water and pH 7.4 PBS solution) were added consequently, before the conical flask was placed in a thermostatic water bath oscillator (37 ± 0.5 °C, 100 rpm) for in vitro release experiment. Samples were taken from the conical flask after 0.083, 0.25, 0.5, 0.75, 1, 1.5, 2, 3, 4, 6, 8, 10, 12, 24, 36, 48, 60, 72, 84 and 96 h of oscillation, respectively, while the same stable release medium with the same volume was added accordingly to maintain its dynamic balance. The samples were centrifugated at 10,000 rpm for 10 min before injection into HPLC for analysis according to the chromatographic conditions under the section of “HPLC analysis of AS.” Finally, the peak areas were recorded, and the concentrations of AS were substituted into the standard curve to calculate the cumulative drug release rate."}, "[4]": {"test": "Pharmacokinetic study in rats", "format": "in vivo, SD rats", "settings": "oral", "description": "Twelve SD rats (male, 200 ± 20 g) were maintained in the laboratory environment for 3 days before experiments. The rats were randomly divided into the free AS group and AS-AL-mPEG-PLGA group with 6 rats in each group. The rats have fasted from food for 12 h with free access to water before the experiment. Rats in the two groups were orally given free AS (dispersed CMC-Na solution) and AS-AL-mPEG-PLGA of equivalent AS dose (150 mg/kg). At each point of 0.25, 0.5, 0.75, 1, 1.5, 2, 2.5, 3, 4, 6, 8, 10, 12 and 24 h after administration, blood samples (0.4 mL) were collected from the orbit of rats with capillaries. The blood samples were placed in a 1.5 mL EP tube filled with heparin sodium and centrifuged at 3700 rpm for 10 min. Aliquot (200 μL) of supernatant was collected into another clean 1.5 mL EP tube. Next, 600 μL of methanol was added into the tube before vortexing for 1 min. The mixture was centrifuged at 10,000 rpm for 10 min and the methanol layer was […] prior to drying with N2 at 37 °C. The residue was dissolved with 100 μL methanol coupled with vortexing for 1 min, and then 10 min of centrifugation at 10,000 rpm. Then, the supernatant was taken and analyzed with HPLC. The peak areas of AS and internal standard were recorded and substituted into the standard curve in vivo to subsequently calculate the concentration of AS."}, "[5]": {"test_system": "rat osteoporosis model (OVX)", "test": "Anti-osteoporotic effect in OVX rats: micro-CT analysis of femur", "format": "in vivo", "description": "(§1) Bilateral ovariectomy (OVX) was performed to establish the rat osteoporosis model according to earlier work (Shakir et al., [2015]). Next, 24 rats were randomly divided into four groups (n = 6): sham operation group (Sham), OVX model group (OVX), free AS group (AS) and AS-AL-mPEG-PLGA group. Rats were anesthetized by intraperitoneal injection of pentobarbital sodium (1%, 8 mL/kg). Later, the rats were placed on a sterile table and fixed prone, while the surgical site on the back was shaved and sterilized with iodophor. Double incisions were taken under the costal back to separate the muscular layer and retroperitoneum into the abdominal cavity. The ovaries were found in the adipose tissue below the kidneys and were removed with bent tweezers and ligated before complete excision of the bilateral ovaries. After confirming that there was no active bleeding, the muscle layer and skin were interlocked, whilst the wound was disinfected. In the Sham group, only a small amount of adipose tissue around the ovaries was removed without damage to both ovaries. The operation was done gently while attention was paid to the sterility principle. After the operation, the rats were kept warm, while drug administration began 4 weeks afterwards at once a day for 12 weeks. Rats in the groups Sham and OVX were given 2 mL of normal saline via the oral route. Rats in the AS and AS-AL-mPEG-PLGA groups orally received 2 mL of free AS (dispersed in CMC-Na solution, 150 mg/kg) and AS-AL-mPEG-PLGA solution (150 mg/kg) every day, respectively.\nIn order to evaluate the bone microstructure, the right femur was analyzed with high-resolution micro-CT using the micro-CT imaging system (Siemens, Inveon) according to the method described in the literature (Zhang et al., [2012]). The femur was fixed in the centrifuge tube by the long axis, while the surrounding was filled with gauze. Quantitative parameters of bone microstructure including percent bone volume (BV/TV), trabecular thickness (Tb.Th), trabecular number (Tb.N), trabecular separation (Tb.Sp), structural model index (SMI) and bone mineral density (BMD) were measured. All the digital data, 2 D and 3 D images were provided by the built-in software of micro-CT (Siemens, Inveon)."}, "[6]": {"test_system": "rat osteoporosis model (OVX)", "test": "Anti-osteoporotic effect in OVX rats: serum biochemical analysis (ELISA)", "format": "in vivo", "description": "as §1\nAll the rats were sacrificed and blood samples were collected. The serum levels of TRACP-5b, BGP, IL-6 and CTX-1 were determined by enzyme-linked immunosorbent assay (ELISA) to evaluate bone absorption and bone formation. The operation steps were strictly in accordance with the instructions of the kits. Finally, the absorbances of the samples were measured at 450 nm with the microplate reader, so as to calculate the concentration of each biochemical index in the serum."}, "[7]": {"test": "Detection of AS content in rats' bones", "format": "in vivo", "settings": "femur homogenate (1 g/mL saline) after the pharmacokinetic experiment, oral 150 mg/kg", "description": "After the pharmacokinetic experiment, the rats were sacrificed and the femurs were homogenized with normal saline at a ratio of 1 g/mL. We then centrifugated the homogenized samples at 10,000 rpm for 10 min, before treatment of the supernatant (200 μL) via the same method as described in the section “Pharmacokinetic study in rats.” Finally, the samples were analyzed via the HPLC method to detect the AS concentration in rats’ bones."}, "[8]": {"design": "method as in Yao et al., 2014", "settings": "PBS, within 24 h, ref Yao et al., 2014; cited from earlier work"}, "[9]": {"settings": "oral 150 mg/kg daily, 12 weeks, P < .01"}},
  "data": [
    {"compound": "Astragaloside", "values": [
      {"measurement": "absolute bioavailability", "setting": "[1]", "result": 7.4, "unit": "%"},
      {"measurement": "adipose tissue in femur, H&E staining", "setting": "[2]", "result": "relatively less adipose tissue"},
      {"measurement": "cumulative release rate", "setting": "[3]; double distilled water", "result": 93.85, "unit": "%"},
      {"measurement": "cumulative release rate", "setting": "[3]; pH 1.2 HCl solution", "result": 96.87, "unit": "%"},
      {"measurement": "cumulative release rate", "setting": "[3]; pH 7.4 PBS solution", "result": 95.95, "unit": "%"},
      {"measurement": "mean plasma concentration at 1440 min", "setting": "[4]; 150 mg/kg", "result": "260 ± 50", "unit": "ng/mL"},
      {"measurement": "AUC0-t", "setting": "[4]; AS dose 150 mg/kg", "result": "1520.45 ± 45.19", "unit": "µg·min/mL"},
      {"measurement": "Cmax", "setting": "[4]; AS dose 150 mg/kg", "result": "5250 ± 500", "unit": "ng/mL"},
      {"measurement": "MRT", "setting": "[4]; AS dose 150 mg/kg", "result": "5.55 ± 0.143", "unit": "h"},
      {"measurement": "T1/2", "setting": "[4]; AS dose 150 mg/kg", "result": "6.5952 ± 0.4407", "unit": "h"},
      {"measurement": "Tmax", "setting": "[4]; AS dose 150 mg/kg", "result": "2 ± 0", "unit": "h"},
      {"measurement": "bone microstructure in 2D and 3D micro-CT images", "setting": "[5]; compared with OVX group", "result": "significantly reduce osteoporosis and increase dense bone mass"},
      {"measurement": "BMD (bone mineral density)", "setting": "[5]; oral 150 mg/kg daily, 12 weeks", "result": "notably increased"},
      {"measurement": "BV/TV (percent bone volume)", "setting": "[5]; oral 150 mg/kg daily, 12 weeks", "result": "notably increased"},
      {"measurement": "SMI (structural model index)", "setting": "[5]; oral 150 mg/kg daily, 12 weeks", "result": "substantially reduced"},
      {"measurement": "Tb.N (trabecular number)", "setting": "[5]; oral 150 mg/kg daily, 12 weeks", "result": "notably increased"},
      {"measurement": "Tb.Sp (trabecular separation)", "setting": "[5]; oral 150 mg/kg daily, 12 weeks", "result": "substantially reduced"},
      {"measurement": "Tb.Th (trabecular thickness)", "setting": "[5]; oral 150 mg/kg daily, 12 weeks", "result": "notably increased"},
      {"measurement": "expression level of IL-6 compared with OVX group", "setting": "[6]; [9]", "result": "decreased significantly"},
      {"measurement": "serum level of BGP compared with OVX group", "setting": "[6]; [9]", "result": "significantly decreased"},
      {"measurement": "serum level of CTX-1 compared with OVX group", "setting": "[6]; [9]", "result": "significantly decreased"},
      {"measurement": "serum level of TRACP-5b compared with OVX group", "setting": "[6]; [9]", "result": "significantly decreased"},
      {"measurement": "serum level of IL-6", "setting": "[6]; oral 150 mg/kg once a day for 12 weeks", "result": "53.88 ± 4.23", "unit": "pg/mL"},
      {"measurement": "concentration of AS in bone", "setting": "[7]", "result": "1950 ± 170", "unit": "ng/mL"}
    ]},
    {"compound": "CN(C)c1ccc(O)c2c1C[C@H]1C[C@H]3[C@H](N(C)C)C(O)=C(C(N)=O)C(=O)[C@@]3(O)C(O)=C1C2=O", "note": "[free minocycline, minocycline]", "values": [
      {"measurement": "minocycline released", "setting": "[8]", "result": "~100", "unit": "%"}
    ]}
  ]
}
